{
  "source": "patent US20260250290A1",
  "about": "(BRISTOL-MYERS SQUIBB COMPANY, priority 2023, published 2026)",
  "data": [
    {"target": "T1, SGK1 (Homo sapiens, UniProt O00141)", "T1 sequence (O00141 1-431)": "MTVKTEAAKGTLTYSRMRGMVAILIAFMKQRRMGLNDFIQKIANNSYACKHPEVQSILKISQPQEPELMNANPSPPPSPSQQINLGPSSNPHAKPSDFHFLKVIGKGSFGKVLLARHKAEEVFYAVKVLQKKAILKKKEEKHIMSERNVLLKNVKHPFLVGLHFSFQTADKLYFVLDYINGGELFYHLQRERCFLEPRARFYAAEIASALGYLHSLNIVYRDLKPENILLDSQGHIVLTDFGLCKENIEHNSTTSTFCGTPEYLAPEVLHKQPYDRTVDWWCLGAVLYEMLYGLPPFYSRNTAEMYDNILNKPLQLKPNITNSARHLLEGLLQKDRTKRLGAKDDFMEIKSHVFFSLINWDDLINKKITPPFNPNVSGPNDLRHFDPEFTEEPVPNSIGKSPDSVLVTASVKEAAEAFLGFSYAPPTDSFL", "assay": "SGK1 inhibition Assay B (Echo mass spectrometry of phosphorylated peptide product)", "assay_type": "biochemical", "conditions": "60 min at room temperature", "units": {"IC50": "nM"}, "protocol": "20 μl of 2 nM SGK1 were added in 20 mM Hepes+10 mM MgCl2+0015% Brij-35+4 mM DTT+0.05 mg/ml BSA and the reaction incubated for 60 min at room temperature. The enzymatic reaction was quenched by addition 10 μl of 1% Formic Acid+150 nM Internal Standard: FITC-(Ahx)KKRNRR(pS)VA^—OH (final concentration). The plates are spun down at 3700 RPM for 10 minutes to remove all precipitate. Samples were loaded on to the Sciex Echo Mass Spec attached to a Sciex 6500 equipped with ESI and was used to analyze the phosphorylated peptide product. MRM transition of product and internal standard were monitored at m/z 755 to 937.5 and m/z 757.7 to 941.3 respectively. Peak area of analyte was normalized with internal standard.\nDose response curves were generated to determine the concentration required for inhibiting 50% of the enzyme activity. Compounds were dissolved at 10 mM in dimethylsulfoxide (DMSO) and evaluated at eleven concentrations.", "values": [
      {"smiles": "CCN1CC[C@@H](Oc2cc(C(F)F)sc2C(=O)N[C@@H]2CCCN(c3cc(-c4ccc(C(N)=O)c(F)c4)n4ncnc(N)c34)C2)CC1(C)C", "note": "[Example 947, N—((R)-1-(4-amino-7-(4-carbamoyl-3-fluorophenyl)pyrrolo[2,1-f][1,2,4]triazin-5-yl)piperidin-3-yl)-5-(difluoromethyl)-3-(((R)-1-ethyl-2,2-dimethylpiperidin-4-yl)oxy)thiophene-2-carboxamide]", "IC50": 1},
      {"smiles": "N#Cc1ccc(-c2cc(N3CCC[C@@H](NC(=O)c4sc(Cl)cc4O[C@@H]4CN5CCC4CC5)C3)c3c(N)ncnn23)cn1", "note": "[Example 950, N—((R)-1-(4-Amino-7-(6-cyanopyridin-3-yl)pyrrolo[2,1-f][1,2,4]triazin-5-yl)piperidin-3-yl)-5-chloro-3-(((S)-quinuclidin-3-yl)oxy)thiophene-2-carboxamide]", "IC50": 0.6},
      {"smiles": "CC(C)c1nc(O[C@@H]2C[C@H]3CC[C@@H](C2)N3C)c(C(=O)N[C@@H]2CCCN(c3cc(-c4ccc(=O)n(CC(F)F)c4)n4ncnc(N)c34)C2)s1", "note": "[Example 951, N—((R)-1-(4-Amino-7-(1-(2,2-difluoroethyl)-6-oxo-1,6-dihydropyridin-3-yl)pyrrolo[2,1-f][1,2,4]triazin-5-yl)piperidin-3-yl)-2-isopropyl-4-(((1R,3s,5S)-8-methyl-8-azabicyclo[3.2.1]octan-3-yl)oxy)thiazole-5-carboxamide]", "IC50": 3},
      {"smiles": "Cc1nc(OC2CC3(CCN(C)CC3)C2)c(C(=O)N[C@@H]2CCCN(c3cc(-c4ccc(C#N)nc4)n4ncnc(N)c34)C2)s1", "note": "[Example 955, (R)—N-(1-(4-amino-7-(6-cyanopyridin-3-yl)pyrrolo[2,1-f][1,2,4]triazin-5-yl)piperidin-3-yl)-2-methyl-4-((7-methyl-7-azaspiro[3.5]nonan-2-yl)oxy)thiazole-5-carboxamide]", "IC50": 17},
      {"smiles": "Cc1nc(O[C@@H]2C[C@H]3CC[C@@H](C2)N3C(C)C)c(C(=O)N[C@@H]2CCCN(c3cc(-c4ccc(C(N)=O)c(OCC(F)F)n4)n4ncnc(N)c34)C2)s1", "note": "[Example 956, N—((R)-1-(4-Amino-7-(5-carbamoyl-6-(2,2-difluoroethoxy)pyridin-2-yl)pyrrolo[2,1-f][1,2,4]triazin-5-yl)piperidin-3-yl)-4-(((1R,3s,5S)-8-isopropyl-8-azabicyclo[3.2.1]octan-3-yl)oxy)-2-methylthiazole-5-carboxamide]", "IC50": 2},
      {"smiles": "CC(=O)N1CC=C(c2cc(N3CCC[C@@H](NC(=O)c4nc(OC5CCNCC5)c(C)s4)C3)c3c(N)ncnn23)C1", "note": "[Example 957, (R)—N-(1-(7-(1-acetyl-2,5-dihydro-1H-pyrrol-3-yl)-4-aminopyrrolo[2,1-f][1,2,4]triazin-5-yl)piperidin-3-yl)-5-methyl-4-(piperidin-4-yloxy)thiazole-2-carboxamide]", "IC50": 0.6},
      {"smiles": "CC(=O)N1CC=C(c2cc(N3CCC[C@@H](NC(=O)c4sc(Cl)cc4OC4C[C@@H]5CN(C)C[C@@H]5C4)C3)c3c(N)ncnn23)C1", "note": "(stereo partly drawn) [Example 958, N—((R)-1-(7-(1-acetyl-2,5-dihydro-1H-pyrrol-3-yl)-4-aminopyrrolo[2,1-f][1,2,4]triazin-5-yl)piperidin-3-yl)-5-chloro-3-(((3aR,6aS)-2-methyloctahydrocyclopenta[c]pyrrol-5-yl)oxy) thiophene-2-carboxamide]", "IC50": 2},
      {"smiles": "CC(C)N1CC2CC(Oc3cc(Cl)sc3C(=O)N[C@@H]3CCCN(c4cc(-c5ccc(-n6cnnn6)nc5)n5ncnc(N)c45)C3)CC2C1", "note": "(stereo partly drawn) [Example 959, N—((R)-1-(7-(6-(1H-tetrazol-1-yl)pyridin-3-yl)-4-aminopyrrolo[2,1-f][1,2,4]triazin-5-yl)piperidin-3-yl)-5-chloro-3-(((3aR,6aS)-2-isopropyloctahydrocyclopenta[c]pyrrol-5-yl)oxy) thiophene-2-carboxamide]", "IC50": 2},
      {"smiles": "Cc1nc(O[C@@H]2C[C@H]3CC[C@@H](C2)N3CCO)c(C(=O)N[C@@H]2CCCN(c3cc(-c4ccc(-n5cnnn5)c(F)c4)n4ncnc(N)c34)C2)s1", "note": "[Example 960, N—((R)-1-(4-amino-7-(3-fluoro-4-(1H-tetrazol-1-yl)phenyl)pyrrolo[2,1-f][1,2,4]triazin-5-yl)piperidin-3-yl)-4-(((1R,3s,5S)-8-(2-hydroxyethyl)-8-azabicyclo [3.2.1]octan-3-yl)oxy)-2-methylthiazole-5-carboxamide]", "IC50": 1},
      {"smiles": "Cc1nc(O[C@@H]2C[C@H]3CC[C@@H](C2)N3C)c(C(=O)N[C@@H]2CCCN(c3cc(-c4ccc5c(c4)CNC5=O)n4ncnc(N)c34)C2)s1", "note": "[Example 961, N-((R)-1-(4-amino-7-(1-oxoisoindolin-5-y1)pyrrolo[2,1-f][1,2,4]triazin-5-y1)piperidin-3-y1)-2-methy1-4-(((IR,3s,5S)-8-methyl-8-azabicyclo[3.2.1]octan-3-yl)oxy)thiazole-5-carboxamide]", "IC50": 5},
      {"smiles": "Cc1nc(O[C@@H]2C[C@H]3CC[C@@H](C2)N3C)c(C(=O)N[C@@H]2CCCN(c3cc(-c4ccc(-n5cnnn5)nc4)n4ncnc(N)c34)C2)s1", "note": "[Example 963, N-((R)-1-(7-(6-(1/-tetrazol-1-y1)pyridin-3-y1)-4-aminopyrrolo[2,1-1][1,2,4]triazin-5-y1)piperidin-3-y1)-2-methyl-4-(((IR,35,5S)-8-methy1-8-azabicyclo[3.2 1]octan-3-yl)oxy)thiazole-5-carboxamide]", "IC50": 3},
      {"smiles": "CCN1C2CCC1CC(Oc1nc(C)sc1C(=O)NC1CCCN(c3cc(-c4ccc(C#N)nc4)n4ncnc(N)c34)C1)C2", "note": "[Example 964, N-((R)-1-(4-amino-7-(6-cyanopyridin-3-yl)pyrrolo[2,1-f][1,2,4]triazin-5-y1)piperidin-3-y1)-4-(((1R,3s,5S)-8-ethyl-8-azabicyclo[3.2.]]octan-3-y])oxy)-2-methylthiazole-5-carboxamide]", "IC50": 46},
      {"smiles": "Cc1nc(OC2CC(C)(C)N(C)C(C)(C)C2)c(C(=O)N[C@@H]2CCCN(c3cc(-c4ccc(-n5cnnn5)c(F)c4)n4ncnc(N)c34)C2)s1", "note": "[Example 965, (R)—N-(1-(4-amino-7-(3-fluoro-4-(1H-tetrazol-1-yl)phenyl)pyrrolo[2,1-f][1,2,4]triazin-5-yl)piperidin-3-yl)-2-methyl-4-((1,2,2,6,6-pentamethylpiperidin-4-yl)oxy) thiazole-5-carboxamide]", "IC50": 3},
      {"smiles": "Cc1nc(O[C@@H]2C[C@H]3CC[C@@H](C2)N3)c(C(=O)N[C@@H]2CCCN(c3cc(-c4ccc5c(c4)OCCNC5=O)n4ncnc(N)c34)C2)s1", "note": "[Example 966, 4-(((1R,3s,5S)-8-azabicyclo [3.2.1]octan-3-yl)oxy)-N—((R)-1-(4-amino-7-(5-oxo-2,3,4,5-tetrahydrobenzo[f][1,4]oxazepin-8-yl)pyrrolo[2,1-f][1,2,4]triazin-5-yl)piperidin-3-yl)-2-methylthiazole-5-carboxamide]", "IC50": 8},
      {"smiles": "CC(C)N1[C@@H]2CCC[C@H]1C[C@H](Oc1cc(Cl)sc1C(=O)N[C@@H]1CCCN(c3cc(-c4cc(F)c(=O)n(CC(F)F)c4)n4ncnc(N)c34)C1)C2", "note": "[Example 968, N—((R)-1-(4-amino-7-(1-(2,2-difluoroethyl)-5-fluoro-6-oxo-1,6-dihydropyridin-3-yl)pyrrolo[2,1-f][1,2,4]triazin-5-yl)piperidin-3-yl)-5-chloro-3-(((1R,3s,5S)-9-isopropyl-9-azabicyclo[3.3.1]nonan-3-yl)oxy)thiophene-2-carboxamide]", "IC50": 2}
    ]}
  ]
}
